“Also recorded” adds a separate entry of the source. Where two headings read alike, the source gives them in different places.
Legend:
H69 cells = experiment: Cell Counting Kit-8 cytotoxicity and drug combination, H69
Method: A Mann-Whitney U test was used for comparison between the normal and SCLC samples. FIG. 1B: IHC for PP2A was conducted on TMA tissue sections and images were captured at 4× or 20× using a 3D-Histech PANNORAMIC SCAN whole slide scanner (3D-Histech, Budapest, Hungary). […] TMAs were scored in normal (n=24) and tumor (n=79) cores on a scale from 0 (no staining/no protein expression) to 3+(strong staining/high protein expression). FIG. 1C: Summary bar graph of the average PP2A subunit staining. IHC staining intensity of normal and tumor cores. […] FIG. 1D: In order to compare the expression of PP2A subunits A and C, cell lysates from seven SCLC cell lines and HBEC 3KT (non-malignant cell line) were subjected to western blotting. FIG. 1E: PP2A activity was determined using a serine/threonine phosphatase activity assay (Millipore) after 24 h exposure to cantharidin (10 μM) and LB-100 (5 μM). […] The Cell Counting Kit-8 assay detected cell H524 and H69 cell viability. […] FIGS. 1I-1K: Graphs depict the mean+SEM of percent viability for cells (n=3). Colony formation assays were used to count the ability of H524 (FIGS. 11 and 1J) and H69 (FIGS. 1K and 1L) cells to form colonies. […] Representative images of colonies at 4× are shown under the graph (n=2).*p<0.05; **, p<0.01; *** p<0.001; ****, p<0.0001. Experiments were repeated in triplicate and representative data are shown.

advanced solid tumors = details: cited from earlier work
H146 cells = details: human, 72 h
Description: (§1) To determine specific cytotoxicity, we used Cell Counting Kit-8 (Dojindo Molecular Technologies, Rockville, Md.) as previously described (50).

H446 spheroids = H446 spheroids with drugs and T cells, live imaging; assay type: cell-based; details: without T cells, 48 h
Method: FIGS. 7A-7G depict results of T cells infiltration in H446 spheroids in the presence of LB100 and atezolizumab. FIG. 7A: Schematic of the effect of activated T cells on H446 spheroid degradation. At time point 0, single spheroids in 96 well plate were treated with LB-100, atezolizumab and T cells. Beads mimic in vivo T cell activation by two action signals CD3 and CD28. IncuCyte® Live-Cell Analysis System was used for the spheroidal imaging. Right panel presents spheroidal degeneration after 48 h incubation with LB-100, atezolizumab and activated T cells. FIGS. 7B and 7C: Automated image analysis provides metrics (0 h-μm, […]) and spheroid area (yellow-bright field mask). Column bars present mean values of spheroids at 0h. Representative images in bright field mask. […]
Cytotoxic CD8+ cells were isolated from whole blood, buffy coat of healthy donors following the protocol described in the Methods. […] Spheroid survival was monitored for 48 hours and their diameters were measured from phase contrast images. […]
H446 were generated as described in Materials and Methods (Monitoring of spheroid growth and cytotoxicity with the IncuCyte® Live-Cell Analysis System and IncuCyte® Cytotox reagent) following incubation with T cells and drugs. The effect of LB100 and atezolizumab in the presence of T cells was monitored with IncuCyte 3D Multi-Tumor Spheroid assay.

[1] = system: extensive-stage small cell lung carcinoma; details: first study subject
Description: The Phase Ib study is a single arm study expected to enroll 18 evaluable patients (maximum 30) entered in groups of 3 at escalating doses of LB-100 using the traditional 3+3 design. […] Each cycle is defined as 3 weeks (21 days). Patients will then proceed to maintenance with LB-100 and atezolizumab. Patients who discontinue study therapy without disease progression will continue to be evaluated for tumor response using RECIST v1.1 (Appendix B) guidelines every 6-8 weeks until disease progression, death, or study closure.
Dose Escalation: The Phase I dose-finding will use a traditional 3+3 to determine the maximum tolerated dose (MTD), based on first cycle DLTs. A maximum of 4 dose levels of LB-100 will be explored. […]
Treatment Overview: This Phase Ib study of LB-100 diluted in 50 mL of normal saline for injection will be administered intravenously in the outpatient clinic over 15 minutes in patients with extensive-stage small cell lung cancer. […] All three patients at each dose level will be assessed for evidence of limiting toxicity through their return visit day 21 (and any delay prior to the start of cycle 2) before the decision is made for dose escalation in the next cohort.

[2] = target: protein phosphatase 2A (PP2A) (Homo sapiens, UniProt P67775); experiment: Inhibition of PP2A versus PP1; assay type: biochemical; details: PP2A vs PP1
H82 cells = experiment: Cell Counting Kit-8 cytotoxicity, H82; details: read-out: Cytotoxicity IC50; H82; 72 hours
Description: as §1

protein phosphatase 2A (PP2A), sequence (P67775 whole entry): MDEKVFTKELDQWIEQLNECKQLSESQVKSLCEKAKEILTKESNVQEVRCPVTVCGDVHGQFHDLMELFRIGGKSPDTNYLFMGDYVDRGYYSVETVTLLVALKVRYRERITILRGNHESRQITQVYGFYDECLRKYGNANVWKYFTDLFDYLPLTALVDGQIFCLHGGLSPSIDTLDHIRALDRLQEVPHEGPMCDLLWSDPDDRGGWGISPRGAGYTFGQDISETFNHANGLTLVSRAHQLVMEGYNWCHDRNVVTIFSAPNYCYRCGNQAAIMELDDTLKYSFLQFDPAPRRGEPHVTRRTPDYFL

| Structure (SMILES) | IC50 (H69 cells; Homo sapiens, NCI-H69, 72 h, read-out: Cytotoxicity IC50, H69, 72 hours) [µM] | IC50 (H69 cells; human, 72 h) [µM] | tolerability / adverse events (advanced solid tumors; Phase I trial) | patients who achieved stable disease (advanced solid tumors; Phase I, advanced solid tumors) | IC50 (H146 cells) [µM] | effect on spheroids (degeneration), drug alone (H446 spheroids) | partial objective response ([1]; after the 2nd cycle, LB-100 0.83 mg/m2 days 1 & 3 with carboplatin/etoposide/atezolizumab) [%] | decrease in measurable tumor ([1]; following the 4th and last cycle of induction therapy) [%] | inhibits PP2A more efficiently than protein phosphatase 1 (PP1) [2] | IC50 (H82 cells) [µM] |
| --- | --- | --- | --- | --- | --- | --- | --- | --- | --- | --- |
| C[NH+]1CCN(C(=O)C2C(C(=O)O)[C@H]3CC[C@@H]2O3)CC1 (stereo in doubt) [LB-100, 3-[(4-Methylpiperazin-1-yl)carbonyl]-7-oxabicyclo[2.2.1]heptane-2-carboxylic acid] | ~20 | 22.6 | no notable adverse events; also recorded: well tolerated | 10 out of 20 | > 20 | moderate effect | 47 | 58 | about 80 fold |  |
| N.N.O=C([O-])C1(C(=O)[O-])CCC1.[Pt+2] [Carboplatin, reference compound] |  |  |  |  |  |  |  |  |  | 46.5 |
